We go through 20 compounds from publication PMC10377601, “Side Chain-Modified Benzothiazinone Derivatives with Anti-Mycobacterial Activity” (Biomedicines, 2023).

For the assay, the system named is M. tuberculosis H37Rv. Description: MIC determination by microplate alamar blue assay (MABA). The following applies: Mycobacterium tuberculosis, Mtb H37Rv, MABA. It is filed as cell-based. (Alamar Blue is a resazurin reagent that responds to reducing activity.)

Values after ≈ are worked out from the molar mass of the structure shown.

For `CN(Cc1cn(C2CCCCC2)nn1)c1nc(=O)c2cc(C(F)(F)F)cc([N+](=O)[O-])c2s1` [Compound 1, 2-{[(1-cyclohexyl-1H-1,2,3-triazol-4-yl)methyl](methyl)amino}-BTZ], the MIC (usually the smallest concentration in the dilution series that meets the test's criterion for growth inhibition) was determined as 0.032 µM (≈ 0.015 µg/mL). Also, under “168 h”, it took 0.032 µM (≈ 0.015 µg/mL) to inhibit growth (MIC). Compound `CN(Cc1cn(-c2ccncc2)nn1)c1nc(=O)c2cc(C(F)(F)F)cc([N+](=O)[O-])c2s1` [Compound 5] displayed an MIC of 0.047 µM (≈ 0.0218 µg/mL). The same measure, in the same setting: in the case of `CN(Cc1cn(-c2cccnc2)nn1)c1nc(=O)c2cc(C(F)(F)F)cc([N+](=O)[O-])c2s1` [Compound 6] it was 0.17 µM (≈ 0.0788 µg/mL); in that of `CN(Cc1cn(-c2ccc(-c3ccccc3)cc2)nn1)c1nc(=O)c2cc(C(F)(F)F)cc([N+](=O)[O-])c2s1` [Compound 7], 0.44 µM (≈ 0.237 µg/mL); in that of `CN(Cc1cn(-c2ccc3ccccc3c2)nn1)c1nc(=O)c2cc(C(F)(F)F)cc([N+](=O)[O-])c2s1` [Compound 8], 0.057 µM (≈ 0.0292 µg/mL). Take `CN(Cc1cn(-c2cccc3ccccc23)nn1)c1nc(=O)c2cc(C(F)(F)F)cc([N+](=O)[O-])c2s1` [Compound 9]: inhibition of growth (MIC) required 0.217 µM (≈ 0.111 µg/mL). `CN(Cc1cn(-c2ccc(F)cc2)nn1)c1nc(=O)c2cc(C(F)(F)F)cc([N+](=O)[O-])c2s1` [Compound 12] registered an MIC of 0.012 µM (≈ 0.00576 µg/mL). The same compound returned an MIC (168 h) of 0.012 µM (≈ 0.00576 µg/mL). `CN(Cc1cn(-c2cccc(F)c2)nn1)c1nc(=O)c2cc(C(F)(F)F)cc([N+](=O)[O-])c2s1` [Compound 13] registered an MIC of 0.008 µM (≈ 0.00384 µg/mL). This compound also returned an MIC (168 h) of 0.008 µM (≈ 0.00384 µg/mL). In turn, `CN(Cc1cn(-c2ccccc2F)nn1)c1nc(=O)c2cc(C(F)(F)F)cc([N+](=O)[O-])c2s1` [Compound 14] yielded an MIC of 0.27 µM (≈ 0.13 µg/mL). The compound also registered an MIC (168 h) of 0.27 µM (≈ 0.13 µg/mL). `CN(Cc1cn(-c2cccc(Cl)c2)nn1)c1nc(=O)c2cc(C(F)(F)F)cc([N+](=O)[O-])c2s1` [Compound 15] returned a minimal inhibitory concentration (MIC) of 0.014 µM (≈ 0.00696 µg/mL). Further, the MIC (168 h) fell in the range of 0.014 to 0.207 µM (≈ 0.00696 to 0.103 µg/mL). `CN(Cc1cn(-c2cccc(Br)c2)nn1)c1nc(=O)c2cc(C(F)(F)F)cc([N+](=O)[O-])c2s1` [Compound 16] returned an MIC of 0.055 µM (≈ 0.0298 µg/mL). The compound also yielded an MIC (168 h) of 0.014 to 0.207 µM (≈ 0.00758 to 0.112 µg/mL).

Take `CN(Cc1cn(-c2cccc(I)c2)nn1)c1nc(=O)c2cc(C(F)(F)F)cc([N+](=O)[O-])c2s1` [Compound 17]: the lowest concentration to inhibit growth (MIC) was 0.133 µM (≈ 0.0782 µg/mL). Where the note is “168 h”, this compound yielded an MIC of 0.014 to 0.207 µM (≈ 0.00824 to 0.122 µg/mL). The compound `COc1cccc(-n2cc(CN(C)c3nc(=O)c4cc(C(F)(F)F)cc([N+](=O)[O-])c4s3)nn2)c1` [Compound 18] displayed an MIC of 0.12 µM (≈ 0.0591 µg/mL). Besides, the MIC (168 h) fell in the range of 0.014 to 0.207 µM (≈ 0.00689 to 0.102 µg/mL). For the compound `Cc1cccc(-n2cc(CN(C)c3nc(=O)c4cc(C(F)(F)F)cc([N+](=O)[O-])c4s3)nn2)c1` [Compound 19, 2-{methyl[1-(m-tolyl)-1H-1,2,3-triazol-4-yl](methyl)amino}-BTZ], the MIC came to 0.061 µM (≈ 0.0291 µg/mL). For the same compound, the MIC (168 h) was 0.014 to 0.207 µM (≈ 0.00667 to 0.0986 µg/mL).

In turn, `CN(Cc1cn(-c2cccc(C(F)(F)F)c2)nn1)c1nc(=O)c2cc(C(F)(F)F)cc([N+](=O)[O-])c2s1` [Compound 20] registered an MIC of 0.04 µM (≈ 0.0212 µg/mL). Moreover, the MIC (168 h) was 0.014 to 0.207 µM (≈ 0.00743 to 0.11 µg/mL).

Consider `CN(Cc1cn(-c2cccc(C#N)c2)nn1)c1nc(=O)c2cc(C(F)(F)F)cc([N+](=O)[O-])c2s1` [Compound 21, 3-{4-[(methyl(8-nitro-4-oxo-6-(trifluoromethyl)-4H-benzo[e][1,3]thiazin-2-yl)amino)methyl)-1H-1,2,3-triazol-1-yl)benzonitrile], for which the lowest concentration to inhibit growth (MIC) was 0.207 µM (≈ 0.101 µg/mL). For the same compound, the MIC (168 h) fell in the range of 0.014 to 0.207 µM (≈ 0.00682 to 0.101 µg/mL). On to `CN(Cc1cn(-c2ccc(F)c(F)c2)nn1)c1nc(=O)c2cc(C(F)(F)F)cc([N+](=O)[O-])c2s1` [Compound 22], for which the MIC is 0.014 µM (≈ 0.00698 µg/mL). The compound also gave an MIC (168 h) below 0.023 µM. `CN(Cc1cn(-c2cc(F)cc(F)c2)nn1)c1nc(=O)c2cc(C(F)(F)F)cc([N+](=O)[O-])c2s1` [Compound 23] showed an MIC of 0.016 µM (≈ 0.00797 µg/mL). Also, where the note is “168 h”, the MIC is below 0.023 µM.

As to `CN(Cc1cn(-c2ccc(F)cc2F)nn1)c1nc(=O)c2cc(C(F)(F)F)cc([N+](=O)[O-])c2s1` [Compound 25], the MIC worked out at 0.023 µM (≈ 0.0115 µg/mL). In the case of `CN(Cc1nnc(-c2cccc(F)c2)o1)c1nc(=O)c2cc(C(F)(F)F)cc([N+](=O)[O-])c2s1` [Compound 38], the MIC was 0.006 µM (≈ 0.00289 µg/mL).
